Assay results: ChEMBL document CHEMBL1123709, “Affinity labels for beta-adrenoceptors: preparation and properties of alkylating beta-blockers derived from indole” (J Med Chem, 1987)

Columns and labels:
Adrenergic receptor beta [1] = target: T1, Adrenergic receptor beta (Rattus norvegicus, UniProt P18090+P10608+P26255); test: Binding affinity against beta adrenergic receptor from rat heart tissues was determined; format: protein assay
Adrenergic receptor beta [2] = target: T1, Adrenergic receptor beta; test: Binding affinity against beta adrenergic receptor from rat lung tissues was determined; format: protein assay
Adrenergic receptor beta [3] = target: T1, Adrenergic receptor beta; test: Binding affinity against the [3H]dihydroalprenolol binding sites on beta adrenergic receptor of rat heart reticulocytes pretreated with alkylating beta-blockers
Adrenergic receptor beta [4] = target: T1, Adrenergic receptor beta; test: Binding affinity against the [3H]dihydroalprenolol binding to beta adrenergic receptor of rat lung reticulocytes pretreated with alkylating beta-blockers
Adrenergic receptor beta [5] = target: T1, Adrenergic receptor beta; test: Binding affinity against the [3H]dihydroalprenolol binding to beta adrenergic receptor of rat heart reticulocytes pretreated with alkylating beta-blockers
[6] = target: T2, Adrenergic receptor beta (Rattus norvegicus) (UniProt P18090+P10608+P26255); test: Percent potency for irreversible blockade of the [3H]dihydroalprenolol binding to beta adrenergic receptor of rat heart reticulocytes pretreated with alkylating beta blockers at concentration of 1 x 10e-6 M
[7] = target: T2, Adrenergic receptor beta (Rattus norvegicus); test: Percent potency for irreversible blockade of the [3H]dihydroalprenolol binding to beta adrenergic receptor of rat heart reticulocytes pretreated with alkylating beta blockers at concentration of 1 x 10e-7 M
[8] = target: T2, Adrenergic receptor beta (Rattus norvegicus); test: Concentration of binding sites of protein for [3H]dihydroalprenolol binding sites on beta adrenergic receptor of rat heart reticulocytes was determined

Kd (Adrenergic receptor beta [3]) [nM] | Kd (Adrenergic receptor beta [4]) [nM] | Blockade [6] [%] | Blockade [7] [%] | Bmax (fM (mg of protein)-1) [8] | SMILES | Ki (Adrenergic receptor beta [1]) [nM] | Ki (Adrenergic receptor beta [2]) [nM] | Kd (Adrenergic receptor beta [5]) [nM]
 |  |  |  |  | C=CCc1ccccc1OCC(O)CNC(C)(C)C1CCC(C)(NC(=O)CBr)CC1 (stereo unspecified) | 31.2 | 19.8 | 
2 | 1.4 |  |  |  | CC1(NC(=O)CBr)CCC(C(C)(C)NCC(O)COc2cccc3[nH]ccc23)CC1 (stereo unspecified) | 22.6 | 4.46 | 
 |  |  |  |  | CC1(NCC(O)COc2cccc3[nH]ccc23)CCC(C(C)(C)NC(=O)CBr)CC1 (stereo unspecified) | 0.46 | 1.34 | 
 |  |  |  |  | C=CCc1ccccc1OCC(O)CNC1(C)CCC(C(C)(C)NC(=O)CBr)CC1 (stereo unspecified) [BROMOACETYL ALPRENOLOL MENTHANE] | 391 | 126 | 
 | 1 | 95 | 89 | 11 | CC1(NCC(O)COc2cccc3[nH]c(C#N)cc23)CCC(C(C)(C)NC(=O)CBr)CC1 (stereo unspecified) | 0.61 | 1.49 | 1.6

SMILES | Kd (Adrenergic receptor beta [3]) [nM] | Kd (Adrenergic receptor beta [4]) [nM] | Blockade [6] [%] | Blockade [7] [%] | Bmax (fM (mg of protein)-1) [8] | Ki (Adrenergic receptor beta [1]) [nM] | Ki (Adrenergic receptor beta [2]) [nM] | Kd (Adrenergic receptor beta [5]) [nM]
CC1(NC(=O)CBr)CCC(C(C)(C)NCC(O)COc2cccc3[nH]c(C#N)cc23)CC1 (stereo unspecified) |  | 1.2 |  |  |  | 1.83 | 2.78 | 1.6
